Source: US12590057B2, “Crystalline complexes” (Theracryf PLC, priority 2020, dated 2026)
Marks after values point to notes of the source that are not given here.

Experiments:
Format in all cases: physicochemical
[1] = TGA mass loss (water content) after exposure to ambient conditions
Protocol: TGA data were collected on a TA Instruments Discovery TGA, equipped with a 25-position auto-sampler. Typically, 5-10 mg of each sample was loaded onto a pre-tared aluminium DSC pan and heated at 10° C./min from ambient temperature to 350° C. A nitrogen purge at 25 ml/min was maintained over the sample. The instrument control software was TRIOS and the data were analysed using TRIOS or Universal Analysis.
Example 3 was also analysed by TGA at days 1, 3, 7, 9, 15 and 20 after removal from the vacuum oven and exposure to ambient conditions, as described in Table 6.

[2] = Typical water content of the crystalline forms
Protocol: The water content of a sample can be determined by any suitable means as will be apparent to one of skill in the art. In one embodiment, the water content is determined by Karl-Fischer titration. In one embodiment, the water content is determined by thermogravimetric analysis (TGA). In one embodiment, the water content is determined by gravimetric vapour sorption (GVS). After formation of the crystalline complex according to the invention, the water content may be as low as 1-3% w/w. However, after exposure of the complex to ambient conditions (25° C., 40% RH) the material typically equilibrates (e.g. over a period of 3-7 days) to a water content of up to 5-7% w/w. It has been found, however, that Form 3, once equilibrated to 5-7% w/w water, maintains physical form at 60% RH making it unexpectedly stable over the 0% and 60% humidity range.

[3] = Variable humidity XRPD (VH-XRPD) at 25° C.
Description: Non-ambient conditions: XRPD diffractograms were collected on a PANalytical Empyrean diffractometer using Cu Kα radiation (45 kV, 40 mA) in reflection geometry. The instrument is fitted with an Anton Paar CHC plus^+ stage fitted with graphite/Kapton windows and equipped with air cooling coupled with a proUmid MHG32 Modular Humidity Generator or a low vacuum pump system using an Edwards RV3 pump. A programmable divergence slit (in automatic mode), with a 10 mm fixed incident beam mask, Ni filter and 0.04 rad Soller slits were used on the incident beam. A PIXcel^3D detector, placed on the diffracted beam, was fitted with a programmable anti-scatter slit (in automatic mode) and 0.04 rad Soller slits. The software used for data collection was X'Pert Data Collector and the data analysed and presented using Diffrac Plus EVA or Highscore Plus. For variable humidity (VH-XRPD) experiments the samples were prepared and analysed in an Anton Paar chromed low-profile sample holder with silicon wafer insert. The measurement parameters are as per the standard screening data collection method (detailed above). For all variable humidity XRPD experiments, a pattern was recorded every hour. […] The Form 1 sample was loaded into the VH chamber, which was set to 40% RH and 25° C. and then the RH was decreased in 10% decrements to 10% RH followed by increasing the RH in 10% increments to 90% RH, while maintaining the temperature at 25° C. […] The sample then quickly transitioned from Form 1 at 80% RH to Form 2 at 90% RH. A variable humidity (VH) XRPD experiment was performed to examine how Form 3 exists under different RH conditions. […] The sample was stable as Form 2 for 8 hours at 80% RH. At 90% RH Form 2 existed for 2 hours before the sample deliquesced in the humidity chamber.

[4] = Chemical stability in biorelevant media
Protocol: Samples of Form 1 (batch ref […]-0004-S-8002) and Form 3 (Example 5.4.1 (batch ref. 491PAL22; A-19-0132)) in 0.1 M HCl and FaSSIF media (1.2 mg/ml) were stored at ambient and 37° C. for up to 7 days. Chemical stability was assessed by determining the concentration of parent compound by HPLC on days 0, 3 and 7 in triplicate.

[5] = GVS sorption-desorption isotherms; settings: for water content at starting conditions (GVS): 40% RH and 25° C.; for additional water taken up (GVS): RH increased to 90%; for crystalline form by XRPD after GVS: after sorption/desorption cycle(s); for total water content (GVS): at 90% RH; for water taken up (GVS): between 0% and 60% RH (Form 1: at 60% RH)
Protocol: Sorption isotherms were obtained using a SMS DVS Intrinsic moisture sorption analyser, controlled by DVS Intrinsic Control software. The sample temperature was maintained at 25° C. by the instrument controls. The humidity was controlled by mixing streams of dry and wet nitrogen, with a total flow rate of 200 ml/min. The relative humidity was measured by a calibrated Rotronic probe (dynamic range of 1.0-100% RH), located near the sample. The weight change, (mass relaxation) of the sample as a function of % RH was constantly monitored by a microbalance (accuracy±0.005 mg). Typically, 5-30 mg of sample was placed in a tared mesh stainless steel basket under ambient conditions. The sample was loaded and unloaded at 40% RH and 25° C. (typical room conditions). A moisture sorption isotherm was performed as outlined below (2 scans per complete cycle). The standard isotherm was performed at 25° C. at 10% RH intervals over a 0-90% RH range. Typically, a double cycle (4 scans) was carried out. Data analysis was carried out within Microsoft Excel using the DVS Analysis Suite. Samples of Example 1 (Form 1) and Example 3 (Form 3) were analysed for their sorption-desorption isotherms by GVS. […] The sample contained approximately 8% w/w water at the starting conditions of 40% RH and 25° C. […] Therefore, the second sorption profile seen in FIG. 18A is that of Form 3. […] The sample contained approximately 3-4% w/w water at the starting conditions of 40% RH and 25° C. […] A significant uptake of moisture occurred in the first sorption cycle between 60 and 70% RH equivalent to approximately 5% w/w.

[6] = 0.1M HCl, ambient, Day 0, 1.2 mg/ml nominal, Form 3 = Example 5.4.1

C[S+]([O-])CCCCN=C=S.OC[C@H]1O[C@@H]2O[C@H]3[C@H](O)[C@@H](O)[C@@H](O[C@H]4[C@H](O)[C@@H](O)[C@@H](O[C@H]5[C@H](O)[C@@H](O)[C@@H](O[C@H]6[C@H](O)[C@@H](O)[C@@H](O[C@H]7[C@H](O)[C@@H](O)[C@@H](O[C@H]1[C@H](O)[C@H]2O)O[C@@H]7CO)O[C@@H]6CO)O[C@@H]5CO)O[C@@H]4CO)O[C@@H]3CO [Form 3]
TGA mass loss ([1]; 1 day exposed to ambient conditions, average of two readings): 4.0* % wt
TGA mass loss ([1]; 3 days exposed to ambient conditions): 5.1 % wt
TGA mass loss ([1]; 7 days exposed to ambient conditions): 5.7 % wt
TGA mass loss ([1]; 9 days exposed to ambient conditions): 6.0 % wt
TGA mass loss ([1]; 15 days exposed to ambient conditions): 6.4 % wt
TGA mass loss ([1]; 20 days exposed to ambient conditions): 6.2 % wt
stabilised water content ([1]; after gradual absorption of atmospheric moisture): approximately 6 % wt
water molecules per 1:1 sulforaphane:α-cyclodextrin complex ([1]; at stabilised water content): 3.5 to 4
water content after equilibration at ambient conditions ([2]; exposure to ambient conditions (25° C., 40% RH), e.g. 3-7 days): 5-7 % w/w
RH at which the form starts to convert to a different form ([3]; 25° C., increasing RH): 70%
solid state form (VH-XRPD) ([3]; Form 3 sample, RH decreased to 70% RH, persisted to 40% RH): Form 2 converted to Form 1
solid state form (VH-XRPD) ([3]; Form 3 sample, RH raised from 40% up to 60%, 25° C.): Form 3 is maintained
solid state form (VH-XRPD) ([3]; Form 3 sample, RH raised to 70%): intermediate phase
solid state form (VH-XRPD) ([3]; Form 3 sample, RH raised to 80%): Form 2
solid state form (VH-XRPD) ([3]; Form 3 sample, after dropping from 90% to 80% RH): Form 2 returned as a highly crystalline material
time sample was stable as Form 2 (VH-XRPD) ([3]; Form 3 sample, at 80% RH): 8 h
time Form 2 existed before the sample deliquesced (VH-XRPD) ([3]; Form 3 sample, at 90% RH): 2 h
Mean Conc of parent ([4]; 0.1M HCl, 37° C., Day 0): 1050 µg/mL
Mean Conc of parent ([4]; 0.1M HCl, 37° C., Day 3): 940 µg/mL
Mean Conc of parent ([4]; 0.1M HCl, 37° C., Day 7): 920 µg/mL
Mean Conc of parent [4, 6]: 1080 µg/mL
Mean Conc of parent ([4]; 0.1M HCl, ambient, Day 3): 940 µg/mL
Mean Conc of parent ([4]; 0.1M HCl, ambient, Day 7): 1010 µg/mL
Mean Conc of parent ([4]; FaSSIF, 37° C., Day 0): 1010 µg/mL
Mean Conc of parent ([4]; FaSSIF, 37° C., Day 3): 800 µg/mL
Mean Conc of parent ([4]; FaSSIF, 37° C., Day 7): 780 µg/mL
Mean Conc of parent ([4]; FaSSIF, ambient, Day 0): 1000 µg/mL
Mean Conc of parent ([4]; FaSSIF, ambient, Day 3): 810 µg/mL
Mean Conc of parent ([4]; FaSSIF, ambient, Day 7): 930 µg/mL
water content at starting conditions (GVS) [5]: 3-4 % w/w
additional water taken up (GVS) ([5]; 25° C.): 7-8 % w/w
crystalline form by XRPD after GVS [5]: remains as Form 3
total water content (GVS) ([5]; 25° C.): 11.1 % w/w
water taken up (GVS) [5]: about 4 % w/w
uptake of moisture in the first sorption cycle (GVS) ([5]; between 60 and 70% RH): approximately 5 % w/w

C[S+]([O-])CCCCN=C=S.OCC1OC2OC3C(CO)OC(OC4C(CO)OC(OC5C(CO)OC(OC6C(CO)OC(OC7C(CO)OC(OC1C(O)C2O)C(O)C7O)C(O)C6O)C(O)C5O)C(O)C4O)C(O)C3O (centres unmarked) [Form 1]
Typical water content [2]: 8-15 % w/w
solid state form (VH-XRPD) ([3]; Form 1 sample, RH reduced from 40% to 30% RH, 25° C.): intermediate phase
solid state form (VH-XRPD) ([3]; Form 1 sample, RH reduced to 20% RH, 25° C.): Form 3
solid state form (VH-XRPD) ([3]; Form 1 sample, after drying to 10% RH, RH increased to 70% RH): intermediate phase
solid state form (VH-XRPD) ([3]; Form 1 sample, after drying to 10% RH, RH increased to 80% RH): Form 1
solid state form (VH-XRPD) ([3]; Form 1 sample, after drying to 10% RH, RH increased to 90% RH): Form 2
Mean Conc of parent ([4]; 0.1M HCl, 37° C., Day 0): 1180 µg/mL
Mean Conc of parent ([4]; 0.1M HCl, 37° C., Day 3): 1060 µg/mL
Mean Conc of parent ([4]; 0.1M HCl, 37° C., Day 7): 1050 µg/mL
Mean Conc of parent [4, 6]: 1220 µg/mL
Mean Conc of parent ([4]; 0.1M HCl, ambient, Day 3): 1090 µg/mL
Mean Conc of parent ([4]; 0.1M HCl, ambient, Day 7): 1050 µg/mL
Mean Conc of parent ([4]; FaSSIF, 37° C., Day 0): 1180 µg/mL
Mean Conc of parent ([4]; FaSSIF, 37° C., Day 3): 920 µg/mL
Mean Conc of parent ([4]; FaSSIF, 37° C., Day 7): 940 µg/mL
Mean Conc of parent ([4]; FaSSIF, ambient, Day 0): 1160 µg/mL
Mean Conc of parent ([4]; FaSSIF, ambient, Day 3): 960 µg/mL
Mean Conc of parent ([4]; FaSSIF, ambient, Day 7): 900 µg/mL
hysteresis (GVS) ([5]; 25° C.): Significant hysteresis existed between 70% and 30% RH
water content at starting conditions (GVS) [5]: approximately 8 % w/w
additional water taken up (GVS) ([5]; 25° C.): 4-5 % w/w
crystalline form by XRPD after GVS [5]: had converted to Form 3
total water content (GVS) ([5]; 25° C.): 12.9 % w/w
water taken up (GVS) [5]: 8-9 % w/w
